This passage reports Ki results from patent US20230129359A1, “MUSCARINIC RECEPTOR 4 ANTAGONISTS AND METHODS OF USE” (Neurocrine Biosciences, Inc., priority 2020, published 2023).

The experiment addresses T1, human M4 receptor (Homo sapiens, UniProt P08173).
T1 construct: expressed in transfected cells; host or cells: CHO cells
T1 sequence (P08173 1-479): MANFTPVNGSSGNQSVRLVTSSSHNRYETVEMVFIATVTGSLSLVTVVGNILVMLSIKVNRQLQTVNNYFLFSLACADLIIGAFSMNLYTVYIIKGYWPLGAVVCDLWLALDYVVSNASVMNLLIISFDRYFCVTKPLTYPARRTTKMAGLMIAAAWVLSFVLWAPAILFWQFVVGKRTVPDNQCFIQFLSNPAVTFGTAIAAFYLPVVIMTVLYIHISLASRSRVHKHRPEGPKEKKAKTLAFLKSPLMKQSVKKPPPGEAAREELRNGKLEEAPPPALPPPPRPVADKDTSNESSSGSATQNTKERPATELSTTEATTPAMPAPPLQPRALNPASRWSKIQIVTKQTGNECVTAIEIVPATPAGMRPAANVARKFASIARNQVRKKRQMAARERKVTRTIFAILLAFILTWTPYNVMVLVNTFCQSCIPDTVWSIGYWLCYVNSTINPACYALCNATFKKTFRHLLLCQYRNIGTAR
Briefly: Radioligand ([3H]N-methylscopolamine) binding assay, membranes from CHO cells expressing human M4 receptor. Particulars: Ki against human M4 receptor; membranes from CHO cells; tritiated N-methylscopolamine 1.5 nM; read-out: K. In a few lines:
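Ki values derive from displacement of tritiated N-methylscopolamine (1.5 nM) from human M4 receptor in CHO membranes. Membranes, radioligand and twelve-point compound series were incubated together at 37 °C for 90 minutes in pH 7.4 HEPES/NaCl/MgCl2/EDTA buffer. Rapid vacuum filtration over polyethylenimine-pretreated filters was followed by radioactivity counting.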
Consider `C[C@@H]1CN(c2nc3ccc(C(F)(F)F)cc3o2)C[C@@H](C)N1C(=O)OC1CC2(C1)CN(Cc1ccccc1)C2` [Compound 429, 2-benzyl-2-azaspiro[3.3]heptan-6-yl (2R,6R)-2,6-dimethyl-4-[6-(trifluoromethyl)-1,3-benzoxazol-2-yl]piperazine-1-carboxylate], for which the Ki was in the range of 0.01 to 0.1 µM.
As to `C[C@@H]1CN(c2nc3ccc(C(F)(F)F)cc3o2)[C@@H](C)CN1C(=O)OC1CC2(C1)CN(Cc1ccccc1)C2` [Compound 430, 2-benzyl-2-azaspiro[3.3]heptan-6-yl (2R,5S)-2,5-dimethyl-4-[6-(trifluoromethyl)-1,3-benzoxazol-2-yl]piperazine-1-carboxylate], the Ki is below 0.01 µM.
As for `C[C@@H]1CN(c2nc3ncc(C(F)(F)F)cc3s2)C[C@H](C)N1C(=O)OC1CC2(C1)CN(Cc1ccccc1)C2` [Compound 431, 2-benzyl-2-azaspiro[3.3]heptan-6-yl (2R,6S)-2,6-dimethyl-4-[6-(trifluoromethyl)-[1,3]thiazolo[4,5-b]pyridin-2-yl]piperazine-1-carboxylate], the figure is 0.01 to 0.1 µM; as for `C[C@@H]1CN(c2nc3ncc(C(F)(F)F)cc3s2)C[C@@H](C)N1C(=O)OC1CC2(C1)CN(Cc1ccccc1)C2` [Compound 432, 2-benzyl-2-azaspiro[3.3]heptan-6-yl (2R,6R)-2,6-dimethyl-4-[6-(trifluoromethyl)-[1,3]thiazolo[4,5-b]pyridin-2-yl]piperazine-1-carboxylate], 0.01 to 0.1 µM.
As for `C[C@@H]1CN(c2nc3ncc(C(F)(F)F)cc3s2)[C@@H](C)CN1C(=O)OC1CC2(C1)CN(Cc1ccccc1)C2` [Compound 433, 2-benzyl-2-azaspiro[3.3]heptan-6-yl (2R,5S)-2,5-dimethyl-4-[6-(trifluoromethyl)-[1,3]thiazolo[4,5-b]pyridin-2-yl]piperazine-1-carboxylate], the Ki lay within 0.01 to 0.1 µM.
Consider `C[C@@H]1CN(c2nc3ccc(C#N)cc3s2)[C@@H](C)CN1C(=O)OC1CC2(C1)CN(Cc1ccccc1)C2` [Compound 435, 2-benzyl-2-azaspiro[3.3]heptan-6-yl (2R,5S)-4-(6-cyano-1,3-benzothiazol-2-yl)-2,5-dimethylpiperazine-1-carboxylate], for which the Ki lay in the range of 0.1 to 1 µM.
As for `O=C(OC1CC2(C1)CN(Cc1ccccc1)C2)N1C2COCC1CN(c1nc3ccc(C(F)(F)F)cc3s1)C2` [Compound 437, 2-benzyl-2-azaspiro[3.3]heptan-6-yl 7-[6-(trifluoromethyl)-1,3-benzothiazol-2-yl]-3-oxa-7,9-diazabicyclo[3.3.1]nonane-9-carboxylate], the figure is 0.01 to 0.1 µM; as for `C[C@@H]1CN(c2nc3cc(F)ccc3s2)C[C@H](C)N1C(=O)OC1CC2(C1)CN(Cc1ccccc1)C2` [Compound 438, 2-benzyl-2-azaspiro[3.3]heptan-6-yl (2R,6S)-4-(5-fluoro-1,3-benzothiazol-2-yl)-2,6-dimethylpiperazine-1-carboxylate], below 0.01 µM; as for `C[C@@H]1CN(c2nc3cc(F)ccc3s2)C[C@@H](C)N1C(=O)OC1CC2(C1)CN(Cc1ccccc1)C2` [Compound 439, 2-benzyl-2-azaspiro[3.3]heptan-6-yl (2R,6R)-4-(5-fluoro-1,3-benzothiazol-2-yl)-2,6-dimethylpiperazine-1-carboxylate], 0.01 to 0.1 µM.
As for `C[C@@H]1CN(c2nc3cc(F)ccc3s2)[C@@H](C)CN1C(=O)OC1CC2(C1)CN(Cc1ccccc1)C2` [Compound 440, 2-benzyl-2-azaspiro[3.3]heptan-6-yl (2R,5S)-4-(5-fluoro-1,3-benzothiazol-2-yl)-2,5-dimethylpiperazine-1-carboxylate], the Ki was below 0.01 µM.
As for `C[C@@H]1CN(c2nc3cc(F)ccc3o2)C[C@H](C)N1C(=O)OC1CC2(C1)CN(Cc1ccccc1)C2` [Compound 441, 2-benzyl-2-azaspiro[3.3]heptan-6-yl (2R,6S)-4-(5-fluoro-1,3-benzoxazol-2-yl)-2,6-dimethylpiperazine-1-carboxylate], the figure is 0.01 to 0.1 µM.
For `C[C@@H]1CN(c2nc3cc(F)ccc3o2)C[C@@H](C)N1C(=O)OC1CC2(C1)CN(Cc1ccccc1)C2` [Compound 442, 2-benzyl-2-azaspiro[3.3]heptan-6-yl (2R,6R)-4-(5-fluoro-1,3-benzoxazol-2-yl)-2,6-dimethylpiperazine-1-carboxylate], the Ki lay in the range of 0.1 to 1 µM.
Take `C[C@@H]1CN(c2nc3cc(F)ccc3o2)[C@@H](C)CN1C(=O)OC1CC2(C1)CN(Cc1ccccc1)C2` [Compound 443, 2-benzyl-2-azaspiro[3.3]heptan-6-yl (2R,5S)-4-(5-fluoro-1,3-benzoxazol-2-yl)-2,5-dimethylpiperazine-1-carboxylate]: the Ki lay within 0.01 to 0.1 µM.
Next, `C[C@@H]1CN(c2nc3ccc(F)cc3o2)C[C@H](C)N1C(=O)OC1CC2(C1)CN(Cc1ccccc1)C2` [Compound 444, 2-benzyl-2-azaspiro[3.3]heptan-6-yl (2R,6S)-4-(6-fluoro-1,3-benzoxazol-2-yl)-2,6-dimethylpiperazine-1-carboxylate]: 0.01 to 0.1 µM; `C[C@@H]1CN(c2nc3ccc(F)cc3o2)C[C@@H](C)N1C(=O)OC1CC2(C1)CN(Cc1ccccc1)C2` [Compound 445, 2-benzyl-2-azaspiro[3.3]heptan-6-yl (2R,6R)-4-(6-fluoro-1,3-benzoxazol-2-yl)-2,6-dimethylpiperazine-1-carboxylate]: 0.01 to 0.1 µM; `C[C@@H]1CN(c2nc3ccc(F)cc3o2)[C@@H](C)CN1C(=O)OC1CC2(C1)CN(Cc1ccccc1)C2` [Compound 446, 2-benzyl-2-azaspiro[3.3]heptan-6-yl (2R,5S)-4-(6-fluoro-1,3-benzoxazol-2-yl)-2,5-dimethylpiperazine-1-carboxylate]: 0.01 to 0.1 µM.
As for `C[C@@H]1CN(c2nc3cc(F)c(F)cc3s2)C[C@H](C)N1C(=O)OC1CC2(C1)CN(Cc1ccccc1)C2` [Compound 447, 2-benzyl-2-azaspiro[3.3]heptan-6-yl (2R,6S)-4-(5,6-difluoro-1,3-benzothiazol-2-yl)-2,6-dimethylpiperazine-1-carboxylate], the figure is below 0.01 µM; as for `C[C@@H]1CN(c2nc3cc(F)c(F)cc3s2)[C@@H](C)CN1C(=O)OC1CC2(C1)CN(Cc1ccccc1)C2` [Compound 449, 2-benzyl-2-azaspiro[3.3]heptan-6-yl (2R,5S)-4-(5,6-difluoro-1,3-benzothiazol-2-yl)-2,56-dimethylpiperazine-1-carboxylate], below 0.01 µM.
For `C[C@@H]1CN(c2ncc3cc(F)ccc3n2)C[C@H](C)N1C(=O)OC1CC2(C1)CN(Cc1ccccc1)C2` [Compound 453, 2-benzyl-2-azaspiro[3.3]heptan-6-yl (2R,6S)-4-(6-fluoroquinazolin-2-yl)-2,6-dimethylpiperazine-1-carboxylate], the Ki was in the range of 0.01 to 0.1 µM.
Next, `C[C@@H]1CN(c2ncc(C(F)(F)F)cn2)C[C@H](C)N1C(=O)OC1CC2(C1)CN(Cc1ccc(F)cc1)C2` [Compound 455, 2-[(4-fluorophenyl)methyl]-2-azaspiro[3.3]heptan-6-yl (2R,6S)-2,6-dimethyl-4-[5-(trifluoromethyl)pyrimidin-2-yl]piperazine-1-carboxylate]: 0.01 to 0.1 µM; `C[C@@H]1CN(c2ncc(C(F)(F)F)cn2)[C@@H](C)CN1C(=O)OC1CC2(C1)CN(Cc1ccc(F)cc1)C2` [Compound 456, 2-[(4-fluorophenyl)methyl]-2-azaspiro[3.3]heptan-6-yl (2R,5S)-2,5-dimethyl-4-[5-(trifluoromethyl)pyrimidin-2-yl]piperazine-1-carboxylate]: below 0.01 µM; `C[C@@H]1CN(c2ncc(C(F)(F)F)cn2)CCN1C(=O)OC1CC2(C1)CN(Cc1ccc(F)cc1)C2` [Compound 457, 2-[(4-fluorophenyl)methyl]-2-azaspiro[3.3]heptan-6-yl (2R)-2-methyl-4-[5-(trifluoromethyl)pyrimidin-2-yl]piperazine-1-carboxylate]: 0.1 to 1 µM.
For the molecule `C[C@@H]1CN(c2cnc(C(F)(F)F)cn2)CCN1C(=O)OC1CC2(C1)CN(Cc1ccc(F)cc1)C2` [Compound 458, 2-[(4-fluorophenyl)methyl]-2-azaspiro[3.3]heptan-6-yl (2R)-2-methyl-4-[5-(trifluoromethyl)pyrazin-2-yl]piperazine-1-carboxylate], the Ki was 0.01 to 0.1 µM.
With `C[C@@H]1CN(c2ncc(OC(F)F)cn2)C[C@H](C)N1C(=O)OC1CC2(C1)CN(Cc1ccccc1)C2` [Compound 462, 2-benzyl-2-azaspiro[3.3]heptan-6-yl (2R,6S)-4-[5-(difluoromethoxy)pyrimidin-2-yl]-2,6-dimethylpiperazine-1-carboxylate], the Ki is below 0.01 µM.
`C[C@@H]1CN(c2ncc(C(F)(F)F)c(N)n2)C[C@H](C)N1C(=O)OC1CC2(C1)CN(Cc1ccccc1)C2` [Compound 463, 2-benzyl-2-azaspiro[3.3]heptan-6-yl (2R,6S)-4-[4-amino-5-(trifluoromethyl)pyrimidin-2-yl]-2,6-dimethylpiperazine-1-carboxylate]: the Ki is below 0.01 µM.
As for `C[C@@H]1CN(c2ncc(C(F)F)cn2)C[C@H](C)N1C(=O)OC1CC2(C1)CN(Cc1ccccc1)C2` [Compound 464, 2-benzyl-2-azaspiro[3.3]heptan-6-yl (2R,6S)-4-[5-(difluoromethyl)pyrimidin-2-yl]-2,6-dimethylpiperazine-1-carboxylate], the figure is 0.01 to 0.1 µM.
